{"source": "patent US20240398767A1", "about": "“INHIBITORS OF THE MTDH-SND1 PROTEIN COMPLEX FOR CANCER THERAPY” (The Trustees of Princeton University, priority 2021, published 2024)", "type_in_all_cases": "in vivo", "key": {"orthotopic PyMT tumors": {"system": "orthotopic PyMT tumors", "test": "Established orthotopic PyMT tumors in FVB female mice", "procedure": "FIG. 5B, Tumor size was determined. Vehicle, n=10 mice, C26-A6, n=12 mice. Significance determined by Two-Way Repeated Measures ANOVA test.\nFIG. 5C, Tumor mass was determined. Vehicle, n=10 mice, C26-A6, n=12 mice. Size bar, 2 cm.\nFIG. 5D, H&E staining was performed with lungs, and metastatic nodules were counted. The metastatic nodules of the representative lungs were highlighted with red and blue respectively. Vehicle, n=10 lungs; C26-A6, n=12 lungs. Size bar, 5 mm.\nFIG. 13D, Primary tumors from experiment in FIG. 5B were stained with Ki67 and Cleaved-Caspase 3 (Casp-3) antibodies. Size bar, 100 μm.\nFIG. 13E, Positive cells were quantified. Data represent mean±SEM. n=6 mice.\nNext, established orthotopic PyMT tumors^4 were treated with vehicle or C26-A6 (FIG. 5A). […] The results were confirmed with SCP28 xenograft tumor model in NSG mice (FIGS. 13A-13C).\nMethods: Animal models. All procedures involving mice and experimental protocols were approved by the Institutional Animal Care and Use Committees (IACUC) of Princeton University. According to the approved IACUC protocol (1881-20), the primary humane endpoint of tumor burden for an individual mouse is 20 mm in any dimension or a total volume of 4000 mm^3 for mice with multiple tumors. Mice were euthanized before exceeding the limit of tumor burden in this study. In the facility, mice were maintained at 20-22° C. with 14 h:10 h light:dark cycles at 40-70% relative humidity. The Mtdh^fl/fl ES cell lines generated by Mtdh targeting vector (CSD48311) was obtained from the KOMP Repository. The ES cells were injected into the C57BL/6 blastocysts followed by confirmation of germline transmission. Mtdh^fl/fl mice were crossed with FLPe mice to remove the selection marker in the vector. Genotyping (Forward primer: […] (SEQ ID NO:21); Reverse primer: […] (SEQ ID NO:22)) was performed to identify positive mice before they were crossed to other strains that were indicated in each experiment. FLPe (Stock No. 003946), MMTV-PyMT (Stock No. 002374), MMTV-WNT1 (Stock No. 002934), C3 (Stock No. 013591), UBC-Cre^ERT2 (Stock No. 007001), FVB (Stock No. 001800), Balb/C (Stock No. 000651), Athymic nude (Nude) (Stock No. 002019), and NOD Scid Gamma (NSG) (Stock No. 005557) were obtained from Jackson Laboratory. Mice in C57BL/6 background were backcrossed to FVB for at least 10 generations to change the background. […] The tumors were measured by calipers for calculation of tumor volumes (length×width^2/2). For cell lines that are stably labeled with a firefly luciferase expressing vector, lung metastases were monitored by bioluminescent imaging (BLI) and images were processed with Living Image 3D Analysis (version 1.0). […]"}, "[1]": {"test": "Toxicity in PyMT tumor-bearing FVB mice (body weight, ALT/AST, blood cell counts, small intestine)", "conditions": "15 mg/kg i.v.", "procedure": "FIG. 12D, Body weight of the mice in experiment from FIG. 5B was measured. Vehicle, n=10 mice; C26-A6, n=12 mice.\nFIG. 12E, Serum from mice in experiment in FIG. 5B were collected for ALT and AST activity measurement following the standard protocol (Sigma). Three FVB females treated with 200 μl of 8% CCl4 in corn oil for 2 days served as positive control. Data represent mean±SEM. n=5 mice per group. Significance determined by one-way ANOVA analysis with Dunnett's test for multiple comparisons.\nFIG. 12F, Blood samples were drawn from the heart of mice in experiment FIG. 5B, and blood cell counts were performed with the Sysemx XN-3000 Hematology System (Sysmex America, Inc.) Data represent mean±SEM. Vehicle, n=6 mice; C26-A6, n=5 mice. Significance determined by two tailed Student's t-test.\nFIG. 12G, Small intestine samples were obtained from mice in experiment from FIG. 5B. H&E and Alcian blue staining was performed on processed, sliced samples. Scale bar: 200 μm.\nFIG. 12H, Quantification of Alcian blue staining results from (FIG. 12G). Data represent mean±SEM. n=12 fields from 5 mice in each group. Significance determined by two tailed Student's t-test."}, "[2]": {"test": "Toxicity in 4TO7 metastasis-bearing mice (ALT/AST, blood cell counts, small intestine)", "procedure": "FIG. 7E, Serum from mice in FIG. 7A were collected for ALT and AST activity measurement following the standard protocol (Sigma). Data represent mean±SEM. AST, n=8 replicates from 6 mice; ALT, n=9 replicates from 6 mice. Significance determined by one-way ANOVA analysis with Sidak's test for multiple comparisons.\nFIG. 7F, Blood samples were drawn from the heart of mice in FIG. 7A, and blood cell counts were performed with the Sysemx XN-3000 Hematology System (Sysmex America, Inc.). Data represent mean±SEM. n=6 mice per group. Significance determined by one-way ANOVA analysis with Sidak's test for multiple comparisons.\nFIG. 7G, Small intestine samples were obtained from mice in FIG. 7A. H&E and Alcian blue staining was performed on processed, sliced samples. Scale bar: 200 μm.\nFIG. 7H, Quantification of Alcian blue staining results from FIG. 7G. Data represent mean±SEM. n=12 fields from 6 mice in each group. Significance determined by one-way ANOVA analysis with Sidak's test for multiple comparisons."}, "[3]": {"conditions": "15 mg/kg i.v., continuous treatment"}}, "note": "Entries after “also recorded” stand apart in the source; their conditions may differ."}
{"smiles": "COc1ccc(Cl)cc1S(=O)(=O)Nc1cccn2nc(C)nc12", "note": "[Analog C26-A6]", "values": [{"measurement": "primary tumor growth", "setting": "orthotopic PyMT tumors; [3]", "result": "significantly inhibited"}, {"measurement": "spontaneous lung metastasis", "setting": "orthotopic PyMT tumors; [3]", "result": "significantly inhibited"}, {"measurement": "tumor apoptosis (cleaved-Caspase 3)", "setting": "orthotopic PyMT tumors; IHC of primary tumors", "result": "induced tumor apoptosis"}, {"measurement": "tumor proliferation (Ki67)", "setting": "orthotopic PyMT tumors; IHC of primary tumors", "result": "reduced tumor proliferation"}, {"measurement": "hematologic, GI tract, and liver toxicity / tolerability", "setting": "[1]", "result": "no significant hematologic, GI tract, and liver toxicity; also recorded: well-tolerated in vivo with minimal toxicity"}, {"measurement": "tolerability", "setting": "[2]; 15 mg/kg 5 days per week", "result": "well tolerated"}, {"measurement": "enhancement of chemotherapy toxicity", "setting": "[2]; combined with paclitaxel", "result": "did not further enhance the chemotherapy toxicity"}]}
